Structures can show the parent of a compound that is named as a salt.

In the test the test system is MPXV strain hMPXV/USA/MA001/2022 (Lineage B.1, Clade IIb). It counts as cell-based, Mpox virus (MPXV).
With `Cc1cnc(Nc2ccc(F)cc2Cl)nc1-c1c[nH]c(C(=O)N[C@H](CO)c2cccc(Cl)c2)c1` [NKIL-VX-11e, VX-11e], the “Duplicate of Duplicate of Hits: No CPE” value is given as 1.

With “FGFR1/DDR2 inhibitor 1 [MC-FGFR1/DDR2 inhibitor 1]”, the “Duplicate of Duplicate of Hits: No CPE” value was 1.

Consider XMU-MP-3 [MC-XMU-MP-3], for which the “Duplicate of Duplicate of Hits: No CPE” value is reported as 1.

For the compound `CCN1CCN(Cc2ccc(-c3cc4c(N[C@H](C)c5ccccc5)ncnc4[nH]3)cc2)CC1` [NKIL-AEE788 (NVP-AEE788), AEE788], the “Duplicate of Duplicate of Hits: No CPE” value was determined as 1.

Turning to `C#Cc1cccc(Nc2ncnc3cc(OCCOC)c(OCCO)cc23)c1.Cl` [MC-Desmethyl Erlotinib, Desmethyl Erlotinib], the “Duplicate of Duplicate of Hits: No CPE” value is reported as 1.

For `C=CC(=O)N[C@H]1C=C(C)c2c(-c3cnc4ccccc4c3)c3c(N)ncnc3n2C1` [MC-Zipalertinib, Zipalertinib], the “Duplicate of Duplicate of Hits: No CPE” value was 1.

As to `Cn1nccc1Nc1nccc(-c2cc3c(s2)C(C)(C)N(CCN2CCOCC2)C3=O)n1` [MC-Temuterkib, Temuterkib], the “Duplicate of Duplicate of Hits: No CPE” value is given as 1.

For `CN(C)C/C=C/C(=O)Nc1cc2c(Nc3ccc(F)c(Cl)c3)ncnc2cc1OC(F)F` [MC-Mefatinib (free base), Mefatinib (free base)], the “Duplicate of Duplicate of Hits: No CPE” value was 1.

Consider `C=CC(=O)Nc1cc(Nc2ncc(C(=O)OC(C)C)c(-c3cn(C)c4ccccc34)n2)c(OC)cc1N(C)CCN(C)C` [MC-Mobocertinib, Mobocertinib], for which the “Duplicate of Duplicate of Hits: No CPE” value is on record as 1.

`C#Cc1cccc(Nc2ncnc3cc(OCCOC)c(OCCOC)cc23)c1.Cl` [MC-Erlotinib (Hydrochloride), Erlotinib (Hydrochloride)]: the “Duplicate of Duplicate of Hits: No CPE” value was determined as 1.

In the case of `CCN1CCC(Nc2ccc3c(c2)/C(=C(\c2cccc(F)c2)c2ncc(C)[nH]2)C(=O)N3)CC1` [MC-Tyrosine kinase-IN-1, Tyrosine kinase-IN-1], the “Duplicate of Duplicate of Hits: No CPE” value amounted to 1.

With `COc1cc2ncnc(Nc3ccc(F)c(Cl)c3)c2cc1NC(=O)/C=C/CN1CCCCC1` [NKIL-Dacomitinib (PF299804, PF299), Dacomitinib], the “Duplicate of Duplicate of Hits: No CPE” value amounted to 1.

Turning to `COCc1c(-c2ccc(NC(=O)Nc3cc(C(F)(F)F)ccc3F)c(F)c2)c2c(N)ncnn2c1CN1CCOCC1` [MC-EOC317, EOC317], the “Duplicate of Duplicate of Hits: No CPE” value is recorded as 1.

As for `Cc1cccc(/C=N/Nc2cc(N3CCOCC3)nc(OCCc3ccccn3)n2)c1` [MC-Apilimod, Apilimod], the “Duplicate of Duplicate of Hits: No CPE” value is 1.

On to `C=CC(=O)Nc1cc(Nc2ncc(C(=O)OC(C)C)c(-c3cn(C)c4ccccc34)n2)c(OC)cc1N(C)CCN(C)C.O=C(O)CCC(=O)O` [MC-Mobocertinib (succinate), Mobocertinib (succinate)], for which the “Duplicate of Duplicate of Hits: No CPE” value worked out at 1.

As to `N[C@H]1CC[C@H](Nc2nc(Nc3ccc(C(=O)N4CCCCC4)cc3)c3ncn(-c4cccc(F)c4)c3n2)CC1` [MC-Purfalcamine, Purfalcamine], the “Duplicate of Duplicate of Hits: No CPE” value is listed as 1.

For `COc1ccc(-c2cc3c(C)nc(N)nc3n([C@H]3CC[C@H](OCCO)CC3)c2=O)cn1` [NKIL-PF-04691502, PF-04691502], the “Duplicate of Duplicate of Hits: No CPE” value is recorded as 1.

Take `Cc1c(CN2CCN(S(C)(=O)=O)CC2)sc2c(N3CCOCC3)nc(-c3cnc(N)nc3)nc12` [MC-GNE-477, GNE-477]: the “Duplicate of Duplicate of Hits: No CPE” value was 1.

Turning to `COc1c(F)cccc1Nc1c(-c2ccncc2OCC(C)(C)OC)[nH]c2c1C(=O)NCC2` [MC-BAY 2476568, BAY 2476568], the “Duplicate of Duplicate of Hits: No CPE” value is given as 1.

Regarding `CNS(=O)(=O)Nc1nccc(Cc2c(C)c3ccc(Oc4ncccn4)cc3oc2=O)c1F` [MC-Avutometinib, Avutometinib], the “Duplicate of Duplicate of Hits: No CPE” value is on record as 1.

With `C=CC(=O)Nc1cc(Nc2nccc(-c3c[nH]c4ccccc34)n2)c(OC)cc1N(C)CCN(C)C` [MC-AZ-5104, AZ-5104], the “Duplicate of Duplicate of Hits: No CPE” value is 1.

For the compound `O=C(NOC[C@H](O)CO)c1ccc(F)c(F)c1Nc1ccc(I)cc1F` [LOPAC-PD 0325901, Mirdametinib], the “Duplicate of Duplicate of Hits: No CPE” value turned out to be 1.

Regarding `COc1cc2ncnc(Nc3ccc(O)c(Br)c3)c2cc1OC` [NKIL-WHI-P154, WHI-P154], the “Duplicate of Duplicate of Hits: No CPE” value is 1.

Regarding `C=CC(=O)Nc1cc2c(Nc3ccc(F)c(Cl)c3)ncnc2cc1C#CC(C)(C)N1CCN(C)CC1` [MC-AV-412 (free base), AV-412 (free base)], the “Duplicate of Duplicate of Hits: No CPE” value came to 1.

As for `C=CC(=O)Nc1cccc(-c2c(-c3ccccc3)oc3ncnc(N[C@H](CO)c4ccccc4)c23)c1` [MC-EGFR-IN-9, EGFR-IN-9], the “Duplicate of Duplicate of Hits: No CPE” value is on record as 1.

As for `COc1cccc(Nc2ncnn3ccc(CN4CC[C@@H](N)[C@H](O)C4)c23)c1` [MC-BMS-690514, BMS-690514], the “Duplicate of Duplicate of Hits: No CPE” value worked out at 1.

In the case of `CCS(=O)(=O)c1cc(Nc2ncc(F)c(N(Cc3ccccc3C#N)c3cc(CO)ccc3C)n2)ccc1N1CCN(C)CC1` [MC-AZ13705339, AZ13705339], the “Duplicate of Duplicate of Hits: No CPE” value is 1.

“Mutant EGFR inhibitor [MC-Mutant EGFR inhibitor]”: the “Duplicate of Duplicate of Hits: No CPE” value is recorded as 1.

Regarding `CCN1CCN(Cc2ccc(NC(=O)c3ccc(C)c(/C=C/c4cnc5[nH]ccc5c4OC)c3)cc2C(F)(F)F)CC1` [MC-HG6-64-1, HG6-64-1], the “Duplicate of Duplicate of Hits: No CPE” value was found to be 1.

For `Cn1c(=O)c(F)c(Nc2ccc(I)cc2F)c2c(=O)n(C[C@@H](O)CO)cnc21` [NKIL-TAK-733, TAK-733], the “Duplicate of Duplicate of Hits: No CPE” value is recorded as 1.

With `COc1ncc(-c2ccc3nccc(C#CCN4CCN(S(C)(=O)=O)CC4)c3c2)cc1NS(=O)(=O)c1ccc(F)cc1F` [MC-NSC781406, NSC781406], the “Duplicate of Duplicate of Hits: No CPE” value came to 1.

As to `Cc1ccc(C(=O)Nc2ccc(CN3CCN(C)CC3)c(C(F)(F)F)c2)cc1C#Cc1cnc2cccnn12.Cl` [MC-Ponatinib (hydrochloride), Ponatinib (hydrochloride)], the “Duplicate of Duplicate of Hits: No CPE” value came out at 1.

In the case of `C=CC(=O)Nc1cc(Nc2nccc(Nc3cc(Cl)c(F)cc3C(C)(C)O)n2)c(OC)cc1N1CC[C@@H](N(C)C)C1` [MC-Sunvozertinib, Sunvozertinib], the “Duplicate of Duplicate of Hits: No CPE” value worked out at 1.

In the case of `C=CC(=O)Nc1cccc(Oc2nc(Nc3ccc(N4CCN(C)CC4)cc3)ncc2Cl)c1` [NKIL-WZ3146, WZ3146], the “Duplicate of Duplicate of Hits: No CPE” value was 1.

As for `O=C(N/N=C/c1c(O)ccc2ccccc12)c1cc(-c2ccc3ccccc3c2)n[nH]1` [MC-SKI-I, SKI-I], the “Duplicate of Duplicate of Hits: No CPE” value stood at 1.

Regarding “(S)-Sunvozertinib [MC-(S)-Sunvozertinib]”, the “Duplicate of Duplicate of Hits: No CPE” value was 1.

For the compound SBI-581 [MC-SBI-581], the “Duplicate of Duplicate of Hits: No CPE” value is listed as 1.

For the compound `CCOc1cc2ncc(C#N)c(Nc3ccc(OCc4cccc(F)c4)c(Cl)c3)c2cc1NC(=O)/C=C/CN(C)C` [MC-HKI-357, HKI-357], the “Duplicate of Duplicate of Hits: No CPE” value was determined as 1.

`O=C(c1ccc(F)c(F)c1Nc1ccc(I)cc1F)N1CC(O)([C@@H]2CCCCN2)C1` (racemic) [MC-Cobimetinib (racemate), Cobimetinib (racemate)]: the “Duplicate of Duplicate of Hits: No CPE” value came out at 1.

`CN(C)C/C=C/C(=O)Nc1cc2c(Nc3ccc(F)c(Cl)c3)ncnc2cc1O[C@H]1CCOC1.O=C(O)/C=C\C(=O)O.O=C(O)/C=C\C(=O)O` [MC-Afatinib (dimaleate), Afatinib (dimaleate)]: the “Duplicate of Duplicate of Hits: No CPE” value worked out at 1.

`C#Cc1cccc(Nc2ncnc3cc(OCCOC)c(OCCOC)cc23)c1` [Erlotinib]: the “Duplicate of Duplicate of Hits: No CPE” value stood at 1.

On to `Cc1c(CN2CCN(C(=O)[C@H](C)O)CC2)sc2c(N3CCOCC3)nc(-c3cnc(N)nc3)nc12` [NKIL-GDC-0980 (RG7422), Apitolisib], for which the “Duplicate of Duplicate of Hits: No CPE” value is listed as 1.

Take `O=C(Nc1ccncc1)Nc1ccc(-c2nc(N3CCOCC3)nc(N3C4CCC3COC4)n2)cc1` [MC-PKI-179 (hydrochloride), PKI-179 (hydrochloride)]: the “Duplicate of Duplicate of Hits: No CPE” value was 1.

As for `Cc1cc(C(=O)Nc2nc3cccc(Cl)c3n2[C@@H]2CCCCN(C(=O)/C=C/CN(C)C)C2)ccn1` [MC-Nazartinib, Nazartinib], the “Duplicate of Duplicate of Hits: No CPE” value was 1.

`Cc1cc(C(=O)NOCCO)c(Nc2ccc(I)cc2F)n(C)c1=O` [NKIL-AZD8330, AZD8330]: the “Duplicate of Duplicate of Hits: No CPE” value is 1.

For the compound `O=C(NOCCO)c1cc(CN2OCCCC2=O)c(F)c(F)c1Nc1ccc(I)cc1F` [MC-RO4987655, RO4987655], the “Duplicate of Duplicate of Hits: No CPE” value is 1.

In the case of `O=C1Nc2cc3[nH]nc(-c4ccncc4)c3cc2CN1Cc1ccccc1` [MC-KO-947, KO-947], the “Duplicate of Duplicate of Hits: No CPE” value amounted to 1.

As for `C=CC(=O)Nc1cc(Nc2nccc(-n3cc(CN(C)C)c(-c4ccccc4)n3)n2)c(OC)cc1N1CCOCC1` [MC-Lazertinib, Lazertinib], the “Duplicate of Duplicate of Hits: No CPE” value is recorded as 1.

Turning to `C=CC(=O)Nc1ccc2ncnc(Nc3ccc(OCc4cccc(F)c4)c(Cl)c3)c2c1.Cc1ccc(S(=O)(=O)O)cc1` [NKIL-AST-1306, Allitinib tosylate], the “Duplicate of Duplicate of Hits: No CPE” value came out at 1.

Take `CC(=O)Nc1cccc(-n2c(=O)n(C3CC3)c(=O)c3c(Nc4ccc(I)cc4F)n(C)c(=O)c(C)c32)c1.C[S+](C)[O-]` [MC-Trametinib (DMSO solvate), Trametinib (DMSO solvate)]: the “Duplicate of Duplicate of Hits: No CPE” value is 1.

`C=CC(=O)Nc1cc(Nc2nccc(-c3cn(C)c4ccccc34)n2)c(OC)cc1OCCN(C)C` [MC-Rezivertinib, Rezivertinib]: the “Duplicate of Duplicate of Hits: No CPE” value turned out to be 1.

For `C=CC(=O)Nc1cc2c(Nc3ccc(OCc4ccccn4)c(Cl)c3)ncnc2cc1OCCN1CCOCC1` [MC-Tuxobertinib, Tuxobertinib], the “Duplicate of Duplicate of Hits: No CPE” value was found to be 1.

Turning to Gilmelisib [MC-Gilmelisib], the “Duplicate of Duplicate of Hits: No CPE” value stood at 1.

With `CN1CCN(c2ccc(Nc3ncc4nc(Nc5ccccc5)n([C@@H]5CCN(S(=O)(=O)C6CC6)C5)c4n3)cc2)CC1` [MC-EGFR-IN-11, EGFR-IN-11], the “Duplicate of Duplicate of Hits: No CPE” value amounted to 1.

Regarding `N[C@@H]1c2ccccc2OC12CCN(c1cnc3c(N4CCCc5ncccc54)n[nH]c3n1)CC2` [MC-Migoprotafib, Migoprotafib], the “Duplicate of Duplicate of Hits: No CPE” value came to 1.

For the origin of these results see paper doi:10.1101/2025.05.02.651913 (bioRxiv, 2025).
